The subject of one experiment is hippocampal neurons. Briefly: In vitro hippocampal neuron repair (scratch injury, gap closure rate). The note with it: 72 hours. In kind it is cell-based, rat. As to the method: (§1) The experimental procedure is depicted in FIG. 2. Removed the brain of E18 rat embryos and dissected into cortex and hippocampus. Subsequently, the cortex and hippocampus were separated into cortical neurons and hippocampal neurons, respectively. Then, seeded hippocampal neurons on 48-well plates. The first day that neurons are cultured in vitro is defined as day in vitro 0 (DIV0). On DIV2, Cytosine beta-D-arabinoside (AraC) was added to neurons to inhibit the proliferation of glial cells. On DIV8, neurons were injured using pipette tips (p10 tips) and 9.674 nM to 967.4 μM Ampelopsisionoside was added. 0.1% DMSO served as the solvent control group, and the results in the figures were standardized against the 0.1% DMSO group. After 72 hours, immunostaining was performed. TUJ1 antibody was used to label neuronal cells to observe the regrowth of neurites. Images were taken using Observer Z1 microscope.
(§2) As depicted in FIG. 3, the degree of neuronal axon regeneration was quantified using the gap closure rate. White dashed lines indicate the borders of injury gap, the central black area represents the region scratched by the tip of a pipette tips. The newly regenerated neurites grow from the white dashed lines toward the center of the gap. To quantify the results, we measured the lengths of gap (Lg) and distance between regenerated neurites (Ln) every 50 m. After unbiasedly drawing ten lines of equal distance, the average distance between neurites is taken: Length of gap between regenerated neurons (Ln). Gap closure rate is calculated using the formula: (Lg−Ln)/Lg. Scale bar=100 m. Images were taken using Observer Z1 microscope.
Removed the brain of E18 rat embryos and dissected into cortex and hippocampus. Subsequently, the cortex and hippocampus were separated into cortical neurons and hippocampal neurons, respectively. Then, seeded hippocampal neurons on 48-well plates. The first day that neurons are cultured in vitro is defined as day in vitro 0 (DIV0). On DIV2, Cytosine beta-D-arabinoside (AraC) was added to neurons to inhibit the proliferation of glial cells. […]

In another experiment the test system is cortical neurons. As to the kind of experiment: In vitro cortical neuron repair (scratch injury, gap closure rate). Type of experiment: cell-based, rat. The note with it: 72 hours.
Excerpt: as §2
as §1, with “Removed” for “The experimental procedure is depicted in FIG. 2. Removed”, “seeded cortical” for “seeded hippocampal”, “to 96.74” for “to 967.4”, “neurites. Scale bar=100 m.” for “neurites.”
Removed the brain of E18 rat embryos and dissected into cortex and hippocampus. Subsequently, the cortex and hippocampus were separated into cortical neurons and hippocampal neurons, respectively. Then, seeded cortical neurons on 48-well plates. The first day that neurons are cultured in vitro is defined as day in vitro 0 (DIV0). On DIV2, Cytosine beta-D-arabinoside (AraC) was added to neurons to inhibit the proliferation of glial cells. […]

The subject of a further experiment is injured brain sections. As to the kind of experiment: Ex vivo 3D brain slice culture, neurite outgrowth after scalpel injury. Type of experiment: cell-based. The note with it: 350 μm rat embryo brain sections, added every day, 96 hours, vs ddH2O. As to the method: The experimental procedure is depicted in FIG. 10. Took out the brain of rat embryos and embedded in low-melting agarose. The brains were sectioned using Leica microtome VT100. The tissue sections were collected with 350 μm thick and injured using a scalpel. ddH2O or Ampelopsisionside was added to injured brain sections every day. After 96 hours, immunostaining was performed. TUJ1 antibody was used to label neuron cells. GFAP antibody was used to label glial cells. DAPI was used to label nucleus. Scale bar=100 m. Images were taken using Zeiss LSM800 confocal microscope.
The experimental procedure is depicted in FIG. 10. Took out the brain of rat embryos and embedded in low-melting agarose. The brains were sectioned using Leica microtome VT100. The tissue sections were collected with 350 μm thick and injured using a scalpel. ddH2O or Byzantionoside B was added to injured brain sections every day. After 96 hours, immunostaining was performed. TUJ1 antibody was used to label neuron cells. GFAP antibody was used to label glial cells. DAPI was used to label nucleus. Scale bar=100 m. Images were taken using Zeiss LSM800 confocal microscope.
The experimental procedure is depicted in FIG. 10. Took out the brain of rat embryos and embedded in low-melting agarose. The brains were sectioned using Leica microtome VT100. The tissue sections were collected with 350 μm thick and injured using a scalpel. ddH2O or Roseoside was added to injured brain sections every day. After 96 hours, immunostaining was performed. TUJ1 antibody was used to label neuron cells. GFAP antibody was used to label glial cells. DAPI was used to label nucleus. Scale bar=100 μm. Images were taken using Zeiss LSM800 confocal microscope.

For another experiment, the system named is retinal explants. Briefly: Ex vivo retinal explant neuronal repair. In kind it is cell-based, C57BL/6 mice. The note with it: five days, vs ddH2O. As to the method:
Retinal explants were obtained from C57BL/6 mice at postnatal day 8. Following the sacrifice of mice, the eyes were enucleated, and the eyeballs were dissected using forceps and microscissors to separate the retina and remove the vitreous. Subsequently, the dissected retinas were quartered and trimmed along the edges of the tissue using microscissors. Each quarter was cultured on an 18 mm round coverslip and placed in a 12-well plate inside a CO2 incubator at 35° C. for five days. The culture medium was replaced daily with fresh medium containing either 13.5 µM or 135 µM Byzantionoside B. On the fifth day of culture, the retinal tissues were fixed with a mixture of 0.1% glutaraldehyde solution and 4% paraformaldehyde at room temperature for one hour. Immunostaining was performed using primary antibodies against the axonal marker beta-III-tubulin (TUJ1) and DAPI to label neurons and cell nuclei, respectively. Images were acquired using a super-resolution upright confocal microscope (LSM-800, Carl Zeiss). […] The ratio of neuronal fiber area to tissue boundary perimeter was then calculated to determine the unit perimeter neuronal fiber length.
Retinal explants were obtained from C57BL/6 mice at postnatal day 8. […] The ratio of neuronal fiber area to tissue boundary perimeter was then calculated to determine the unit perimeter neuronal fiber length.

On to `C[C@H](/C=C/[C@@]1(O)[C@H](C)CC(=O)CC1(C)C)O[C@@H]1O[C@H](CO)[C@@H](O)[C@H](O)[C@H]1O` [Ampelopsisionoside], for which, in the experiment with hippocampal neurons (9.674 nM to 967.4 μM, vs 0.1% DMSO), the “neurite regrowth after injury (gap closure rate)” value (“neurite regrowth after injury” below) is recorded as “promotes neurite regrowth after injury”. Besides, in the experiment on cortical neurons (9.674 nM to 96.74 μM, vs 0.1% DMSO), the “dendritic outgrowth (gap closure rate)” value is on record as “effectively promotes dendritic outgrowth”. For the same compound, in the experiment with injured brain sections, the “neurite outgrowth from injury site” value is “promotes neurite outgrowth”.
`CC1=CC(=O)CC(C)(C)[C@H]1CC[C@@H](C)O[C@@H]1O[C@H](CO)[C@@H](O)[C@H](O)[C@H]1O` [Byzantionoside B]: the “neurite regrowth after injury” value in the experiment on hippocampal neurons (0.13 M to 1342 μM, vs ddH2O) is on record as “promotes neurite regrowth after injury”. The “neurite outgrowth (gap closure rate)” value in the experiment with cortical neurons (1.34 M to 26.84 M, vs ddH2O) is listed as “effectively promotes neurite outgrowth”. In addition, the “neurite outgrowth from injury site” value in the experiment with injured brain sections is on record as “promotes neurite outgrowth”. Further, the “recovery of injured retinal neurons (unit perimeter neuronal fiber length)” value in the experiment with retinal explants (13.5 M or […]) is recorded as “significant recovery of injured retinal neurons”.
On to `CC1=CC(=O)CC(C)(C)[C@@]1(O)/C=C/[C@@H](C)O[C@@H]1O[C@H](CO)[C@@H](O)[C@H](O)[C@H]1O` [Roseoside], for which, in the experiment on hippocampal neurons (0.013 M to 1294 μM, vs ddH2O), the “neurite regrowth after injury” value was “promotes neurite regrowth after injury”. Besides, the “dendritic outgrowth (gap closure rate)” value with cortical neurons (1.29 M to 25.88 M, vs ddH2O) was “effectively promotes dendritic outgrowth”. Moreover, the “neurite outgrowth from injury site” value in the experiment on injured brain sections is “promotes neurite outgrowth”. The “recovery of injured retinal neurons (unit perimeter neuronal fiber length)” value with retinal explants (13 μM or 130 μM) is listed as “significant recovery of injured retinal neurons”.
